Paper PMC3857224, “Inhibition of DNA Glycosylases via Small Molecule Purine Analogs” (PLoS ONE, 2013)

Columns and labels:
[1] = target: T1, NEIL1 (Homo sapiens, UniProt Q96FI4); experiment: qHTS fluorogenic glycosylase/AP lyase assay, 1536-well, Sp/Gh substrate; type: biochemical; settings: 5 concentrations
T1 construct: made in house
Description: The fluorogenic assay was miniaturized to 4 µL in 1536-well black solid plates by optimization of the enzyme and Sp/Gh substrate concentrations. Briefly, 3 µL of 25 nM NEIL1 were dispensed into each well of a 1536-well plate (except buffer in columns 3 and 4 as a negative control). Compounds (DMSO solutions) and control (DMSO only) (23 nL) were transferred to the plate via Kalypsys pintool. The plate was incubated for 15 min at room temperature, and then 1 µL of the Sp/Gh-containing DNA substrate (75 nM final concentration) was added to start the reaction. The plate was immediately transferred into the ViewLux reader for the kinetic fluorescence read. Initial rate data were normalized against uninhibited and no-enzyme controls and the resulting percent activities as a function of compound concentration were fitted using the Hill equation.
Having established the general principle for a glycosylase screening assay, further assay development was undertaken to enable HTS in which the reaction volumes were reduced by 5-fold to a total of 4 µL. Initially, the library of pharmacologically active compounds (LOPAC^1280) was screened for inhibitors of NEIL1 as a determination of the feasibility of this high-throughput method. […] All compounds were screened at 5 different concentrations that allowed for the initial estimation of inhibitory potency (IC50) values, as well as an evaluation of the shape of the response curves. In addition to the anticipated inhibitors (known DNA intercalators, such as ellipticine (IC50 = 2 µM)) and other small molecules that have been previously established to be promiscuous inhibitors (such as aurintricarboxylic acid (IC50<1 µM)), one interesting hit from this screen was CGP-74514A (NCGC ID is NCGC00015229) (Figure 5A). CGP-74514A is a known small molecule inhibitor of Cdk1 in which the structure of this molecule is based on a purine ring backbone.

[2] = target: T1, NEIL1; experiment: gel-based incision assay of oligodeoxynucleotides containing site-specific base lesions; type: biochemical; settings: polyacrylamide gel, reaction quenched at 20 min
Description: The 384-well fluorogenic assay was carried out in a 20 µL reaction mixture in 20 mM Tris-HCl pH 8.0, 100 mM KCl, and 0.1% BSA, with 5 nM active enzyme and 50 nM substrate. Possible inhibitors were incubated with the enzyme for at least 5 min at room temperature in a black, low-volume 384-well plate before addition of an equal volume of substrate to start the reaction. The plates were spun for 30 s at 1000 rcf to remove bubbles. The reactions were incubated at 37°C and fluorescence data collected on an Infinite M200 (Tecan, Mannedorf, Switzerland) equipped with standard optics (excitation filter 525 nm, and emission filter 598 nm). For the gel-based assay, reactions were initiated as described for the fluorogenic assay, but quenched with 20 µL 95% formamide at 20 min. The products were separated by electrophoresis through a 15% polyacrylamide gel containing 8 M urea and visualized by a Typhoon scanner (GE Life Sciences, Piscataway, NJ). The fraction of cleaved product was measured using ImageQuant software and analyzed using GraphPad Prism 6. […]

[3] = target: T1, NEIL1; experiment: NEIL1 excision of FapyAde and FapyGua from γ-irradiated calf thymus DNA by GC-MS/MS; type: biochemical; settings: 10 µL of 2 mM inhibitor in DMSO, 1 h 37°C
Description: The enzymatic activity of NEIL1 was measured using gas chromatography/isotope-dilution tandem mass spectrometry (GC-MS/MS) and calf thymus DNA samples γ-irradiated at 20 Gy as described, [30]. Aliquots of FapyAde-^13C,^15N2 and FapyGua-^13C,^15N2 were added as internal standards to 50 µg of DNA samples. After drying in a SpeedVac, DNA samples were dissolved in 50 µL of an incubation buffer consisting of 50 mM phosphate buffer (pH 7.4), 100 mM KCl, 1 mM EDTA, and 0.1 mM dithiothreitol, and then incubated with 2 µg NEIL1 for 1 h at 37°C without any inhibitor, DMSO alone, or with 10 µL of an inhibitor solution in DMSO (2 mM). After incubation, 150 µL of cold ethanol was added. The samples were kept at −20°C for 1 h and then centrifuged with 14,000 g for 30 min at 4°C. The supernatant fractions were separated and ethanol removed in a SpeedVac under vacuum. The samples were then frozen in liquid nitrogen and lyophilized overnight. To fully remove DMSO that would interfere with GC-MS/MS analysis, 500 µL water were added to the samples followed by lyophilization overnight. This procedure was repeated twice. Dried samples were derivatized and analyzed by GC-MS/MS as described, [30]. For each data point, three independently prepared samples were used.
Although Gh and Sp are excellent substrates for NEIL1, these are likely not to be the biologically relevant substrates. Thus, to determine if the compounds that were identified above were effective in the inhibition of NEIL1 against its biologically relevant substrates FapyAde and FapyGua, [6], γ-irradiated calf thymus DNA was used as a substrate. The excision by NEIL1 of these substrates from DNA was measured by GC-MS/MS with isotope-dilution. Figure 8 illustrates the excision of FapyAde and FapyGua by NEIL1 from γ-irradiated calf thymus DNA in the absence or presence of inhibitors. […] Some inhibition by DMSO alone was also observed when compared with excision by NEIL1 alone (p = 0.01). However, when compared to DMSO, the inhibitions by P2, P6, P7 and P8 were highly significant (p<0.005). […] A p-value<0.05 was assumed to correspond to statistical significance.

[4] = system: Neil1-KO MEFs; experiment: cell survival assay (CellTiter Glo), Neil1-KO MEFs; type: cell-based, mouse; settings: Neil1 knockout MEFs, 72 h exposure
Description: Wild-type or Neil1-KO MEFs were plated in a 96-well opaque walled dish (2000 cells/well) and incubated for 18 h to allow for attachment. Inhibitor (80 µL) diluted in DMEM was added to the cells at various concentrations ranging from 0–20 µM, and incubated for an additional 72 h. Cell viability was measured using the CellTiter Glo reagent (Promega, Madison, WI) and was prepared as per the manufacturer's instructions, with 50 µL of the reconstituted reagent added to each well. Cells were incubated for 10 min on an orbital shaker to induce cell lysis. Survival was measured by luminescence on a microplate reader (TECAN) and normalized to no-treatment control.
To experimentally address this question, mouse embryo fibroblasts from wild-type and Neil1 knockout mice were treated with increasing concentrations of P2, P6, P7, and P8. Cell survival was measured after a 72 h exposure. For all four compounds, the 37% survival was greater in the Neil1 knockout cells relative to the wild-type. The D37 ratios for WT: Neil1 were as follows: P2: 6∶10 µM; P6: 5∶8 µM; P7: 12∶15 µM; and P8: 7∶11 µM, respectively. […] In addition to modulating BER, there are potentially many other candidate enzymes that may be compromised by the introduction of these compounds, including but not limited to kinases, DNA and RNA polymerases, other DNA repair complexes or helicases. However, given that the concentrations of these compounds are several orders of magnitude higher than what would be considered as a pharmacologically-relevant dose, detailed mechanistic analyses of the current set of compounds is highly premature. Such studies and the development of appropriate cell culture and animal models will need to be generated concomitantly with the evolution of higher affinity, greater specificity molecules.

T1 sequence (Q96FI4 whole entry): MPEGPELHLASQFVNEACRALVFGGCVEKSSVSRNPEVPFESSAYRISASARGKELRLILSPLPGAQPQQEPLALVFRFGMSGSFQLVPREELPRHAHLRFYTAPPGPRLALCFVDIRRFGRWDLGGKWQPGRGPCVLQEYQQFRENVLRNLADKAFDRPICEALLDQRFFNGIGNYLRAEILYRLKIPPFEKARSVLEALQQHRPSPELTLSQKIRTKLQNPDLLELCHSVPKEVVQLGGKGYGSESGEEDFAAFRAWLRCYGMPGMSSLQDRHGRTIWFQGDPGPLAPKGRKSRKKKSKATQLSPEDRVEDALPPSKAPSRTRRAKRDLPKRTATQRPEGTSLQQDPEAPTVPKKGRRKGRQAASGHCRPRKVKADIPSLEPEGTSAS

| SMILES | IC50 [1] [µM] | IC50 [2] [µM] | inhibition of NEIL1 excision of FapyAde and FapyGua [3] | D37 (37% survival) [4] [µM] |
| --- | --- | --- | --- | --- |
| Cc1cc(/C=C/C#N)cc(C)c1Nc1nc(Nc2ccc3scnc3c2)c2nc[nH]c2n1 [Purine P2] | 4 | 28 | significantly reduced the activity of NEIL1 | 10 |
| Cc1nc2ccc(Nc3nc(Nc4c(C)cc(/C=C/C#N)cc4C)nc4[nH]cnc34)cc2s1 [Purine P6] | 7.9 | 9.2 | significantly reduced the activity of NEIL1 | 8 |
| Cc1cc(/C=C/C#N)cc(C)c1Nc1nc(Nc2ccc3c(c2)CCC3)c2nc[nH]c2n1 [Purine P7] | 8.9 | 11.7 | significantly reduced the activity of NEIL1 | 15 |
| Cc1cc(/C=C/C#N)cc(C)c1Nc1nc(Nc2ccc3c(c2)OCO3)c2nc[nH]c2n1 [Purine P8] | 10 | 15.2 | significantly reduced the activity of NEIL1 | 11 |
